Experimental data from patent US20090042987A1, “TREATMENT OF NEUROPATHIC PAIN” (priority 2007, published 2009).
Entries after “also recorded” stand apart in the source; their conditions may differ.

Test system: drug-naïve STZ-diabetic rats
Test: von Frey paw withdrawal thresholds, drug-naïve STZ-diabetic rats, Example 2
Type: in vivo, rat
Settings: for Mean (±SEM) AUC (area under the normalized PWT versus time curve) / Mean (±SEM) Peak response (PWT) / Mean (±SEM) % MPR at peak: after 7th consecutive twice-daily dose; for Mean (±SEM) % MPR at peak: 100% MPR = full reversal of tactile allodynia; for Mean duration of action / Time of peak anti-allodynia post-dosing: 7th twice-daily dose
Description: Experimental Animals Ethical approval for this study was obtained from the Animal Experimentation Ethics Committee of The University of Queensland. Adult male Sprague-Dawley (SD) rats (222±4 g) were used for this study. Rats were housed in a temperature controlled room (21+2.0 C) with a 12/12 hour light/dark cycle. Food and water were available ad libitum. Initiation of drug administration occurred at 8-11 weeks post-STZ administration for rats in Experiment 1 (PCT-001) and at 10-12 weeks post-STZ administration for rats in Experiment 2 (PCT-007).
Test Article Tranilast was supplied by the Sponsor and stored at −4° C. until use. Gabapentin (100 mg/kg, dissolved in water for injection) was utilized as the positive control for this study.
Test Article and Vehicle Preparation Test article formulations were prepared freshly on the day of administration by weighing the appropriate amount of bulk powder and suspending it in the required volume of vehicle. Carboxymethyl cellulose ((CMC) 0.5% in water for injection) was utilized as the vehicle for this study.
Test Article Administration. […] The maximum oral gavage volume administered in this study was […]. 4.4
STZ-Diabetic Rat Model of Painful Diabetic Neuropathy. Painful diabetic neuropathy is a common long-term complication of diabetes in humans that develops as a result of a sustained biochemical nerve injury. […] Following the induction of diabetes with intravenous STZ at 70-80 mg/kg, it generally takes 6-8 wks for tactile allodynia, the defining symptom of PDN, to fully develop in both rat hindpaws.
Induction of STZ-Diabetes in Rats. On day 0, rats were anaesthetized with 3% isoflurane:97% O2 and a short polyethylene cannula (0.5 mm ID, 0.8 mm OD) was inserted into the jugular vein to facilitate the intravenous (i.v.) administration of a single dose of streptozotocin (STZ: 70-80 mg/kg). After STZ injection, the cannula was removed and the jugular vein was tied off and the wound was closed. Rats received subcutaneous benzylpenicillin (60 mg) prior to surgery to prevent infection and were kept warm during surgical recovery. Rats were housed singly prior to further experimentation and were monitored daily from the time of STZ administration with regard to general health and well-being.
Von Frey Assessment of Paw Withdrawal Thresholds. Calibrated von Frey filaments were used to determine the lowest mechanical threshold required to evoke a brisk paw withdrawal reflex in the rat hindpaws. Briefly, rats were transferred individually to wire mesh testing cages (20 cm×20 cm×20 cm) and allowed to acclimatize for approximately 10-20 min prior to von Frey testing. Commencing with the von Frey filament that produced the 6 g force, the filament was applied to the plantar surface of the hindpaw until the filament buckled slightly. Absence of a response after 3 s prompted use of the next filament of increasing weight. A withdrawal response within 3 s prompted use of the next filament of decreasing weight. Filaments used produced buckling weights of 2, 4, 6, 8, 10, 12, 14, 16, 18 and 20 g. […] Tactile allodynia is regarded as being fully developed when von Frey PWTs in the injured hindpaws are <6 g.
Restoring von-Frey PWTs in the hindpaws from <6 g to pre-STZ surgery levels (12±2 g) is the treatment goal representing full reversal of tactile allodynia. If drug treatment increases PWTs above pre-surgical baseline values (i.e. >12±2 g), such a response is classified as antinociception. Before administration of STZ, baseline von Frey measurements were assessed. Following STZ administration, baseline PWTs were assessed in the hindpaws at week 8-11 to confirm the development of diabetes-induced tactile allodynia.
Dose-Response Curve for Tranilast in Drug-Naive STZ-Diabetic Rats. […]

[1] = tranilast 100, 200, 300 and 400 mg/kg oral, 7 consecutive twice-daily doses

## COc1ccc(/C=C/C(=O)Nc2ccccc2C(=O)O)cc1OC [Tranilast, 2-[[3-(3,4-dimethoxyphenyl)-1-oxo-2-propenyl]amino]benzoic acid]
Tranilast 100 mg/kg oral twice-daily, prior to dose 1
  Mean (±SEM) von Frey Paw Withdrawal threshold assessed prior to dose: 4.8 ± 0.5 g
Tranilast 100 mg/kg oral twice-daily, prior to dose 3
  Mean (±SEM) von Frey Paw Withdrawal threshold assessed prior to dose: 4.4 ± 0.7 g
Tranilast 100 mg/kg oral twice-daily, prior to dose 5
  Mean (±SEM) von Frey Paw Withdrawal threshold assessed prior to dose: 5.1 ± 0.5 g
Tranilast 100 mg/kg oral twice-daily, prior to dose 7
  Mean (±SEM) von Frey Paw Withdrawal threshold assessed prior to dose: 5.3 ± 0.5 g
Tranilast 100 mg/kg oral twice-daily, time 0 h (pre-dose)
  Mean (±SEM) von Frey Paw Withdrawal threshold following the 7th consecutive dose: 5.3 ± 0.4 g
Tranilast 100 mg/kg oral twice-daily, time 0.15 h
  Mean (±SEM) von Frey Paw Withdrawal threshold following the 7th consecutive dose: 6.0 ± 0 g
Tranilast 100 mg/kg oral twice-daily, time 0.5 h
  Mean (±SEM) von Frey Paw Withdrawal threshold following the 7th consecutive dose: 7.25 ± 0.5 g
Tranilast 100 mg/kg oral twice-daily, time 0.75 h
  Mean (±SEM) von Frey Paw Withdrawal threshold following the 7th consecutive dose: 7.75 ± 0.25 g
Tranilast 100 mg/kg oral twice-daily, time 1 h
  Mean (±SEM) von Frey Paw Withdrawal threshold following the 7th consecutive dose: 8.25 ± 0.5 g
Tranilast 100 mg/kg oral twice-daily, time 1.25 h
  Mean (±SEM) von Frey Paw Withdrawal threshold following the 7th consecutive dose: 8.0 ± 0 g
Tranilast 100 mg/kg oral twice-daily, time 1.5 h
  Mean (±SEM) von Frey Paw Withdrawal threshold following the 7th consecutive dose: 6.75 ± 0.5 g
Tranilast 100 mg/kg oral twice-daily, time 2 h
  Mean (±SEM) von Frey Paw Withdrawal threshold following the 7th consecutive dose: 7.0 ± 0.6 g
Tranilast 100 mg/kg oral twice-daily, time 3 h
  Mean (±SEM) von Frey Paw Withdrawal threshold following the 7th consecutive dose: 6.25 ± 0.3 g
Tranilast 100 mg/kg oral
  Mean (±SEM) AUC (area under the normalized PWT versus time curve): 4.98 ± 1.7
  Mean (±SEM) Peak response (PWT): 8.25 ± 0.5
  Mean (±SEM) % MPR at peak: 53.2 ± 3.3%
Tranilast 200 mg/kg oral twice-daily, prior to dose 1
  Mean (±SEM) von Frey Paw Withdrawal threshold assessed prior to dose: 4.9 ± 0.6 g
Tranilast 200 mg/kg oral twice-daily, prior to dose 3
  Mean (±SEM) von Frey Paw Withdrawal threshold assessed prior to dose: 5.2 ± 0.6 g
Tranilast 200 mg/kg oral twice-daily, prior to dose 5
  Mean (±SEM) von Frey Paw Withdrawal threshold assessed prior to dose: 5.2 ± 0.5 g
Tranilast 200 mg/kg oral twice-daily, prior to dose 7
  Mean (±SEM) von Frey Paw Withdrawal threshold assessed prior to dose: 5.2 ± 0.5 g
Tranilast 200 mg/kg oral twice-daily, time 0 h (pre-dose)
  Mean (±SEM) von Frey Paw Withdrawal threshold following the 7th consecutive dose: 5.2 ± 0.4 g
Tranilast 200 mg/kg oral twice-daily, time 0.15 h
  Mean (±SEM) von Frey Paw Withdrawal threshold following the 7th consecutive dose: 5.75 ± 0.7 g
Tranilast 200 mg/kg oral twice-daily, time 0.5 h
  Mean (±SEM) von Frey Paw Withdrawal threshold following the 7th consecutive dose: 7.25 ± 0.5 g
Tranilast 200 mg/kg oral twice-daily, time 0.75 h
  Mean (±SEM) von Frey Paw Withdrawal threshold following the 7th consecutive dose: 8.25 ± 0.25 g
Tranilast 200 mg/kg oral twice-daily, time 1 h
  Mean (±SEM) von Frey Paw Withdrawal threshold following the 7th consecutive dose: 8.75 ± 0.5 g
Tranilast 200 mg/kg oral twice-daily, time 1.25 h
  Mean (±SEM) von Frey Paw Withdrawal threshold following the 7th consecutive dose: 7.25 ± 0.25 g
Tranilast 200 mg/kg oral twice-daily, time 1.5 h
  Mean (±SEM) von Frey Paw Withdrawal threshold following the 7th consecutive dose: 7.0 ± 0.5 g
Tranilast 200 mg/kg oral twice-daily, time 2 h
  Mean (±SEM) von Frey Paw Withdrawal threshold following the 7th consecutive dose: 7.25 ± 0.25 g
Tranilast 200 mg/kg oral twice-daily, time 3 h
  Mean (±SEM) von Frey Paw Withdrawal threshold following the 7th consecutive dose: 6.0 ± 0 g
Tranilast 200 mg/kg oral
  Mean (±SEM) AUC (area under the normalized PWT versus time curve): 5.75 ± 0.7
  Mean (±SEM) Peak response (PWT): 8.75 ± 0.5
  Mean (±SEM) % MPR at peak: 62.6 ± 11.7%
Tranilast 300 mg/kg oral twice-daily, prior to dose 1
  Mean (±SEM) von Frey Paw Withdrawal threshold assessed prior to dose: 4.2 ± 0.6 g
Tranilast 300 mg/kg oral twice-daily, prior to dose 3
  Mean (±SEM) von Frey Paw Withdrawal threshold assessed prior to dose: 3.7 ± 0.8 g
Tranilast 300 mg/kg oral twice-daily, prior to dose 5
  Mean (±SEM) von Frey Paw Withdrawal threshold assessed prior to dose: 3.9 ± 0.7 g
Tranilast 300 mg/kg oral twice-daily, prior to dose 7
  Mean (±SEM) von Frey Paw Withdrawal threshold assessed prior to dose: 4.8 ± 0.6 g
Tranilast 300 mg/kg oral twice-daily, time 0 h (pre-dose)
  Mean (±SEM) von Frey Paw Withdrawal threshold following the 7th consecutive dose: 4.8 ± 0.5 g
Tranilast 300 mg/kg oral twice-daily, time 0 h (pre-dose), listed as tranilast
  Mean (±SEM) von Frey Paw Withdrawal threshold following the 7th consecutive dose: 4.8 (±0.5) g
Tranilast 300 mg/kg oral twice-daily, time 0.15 h
  Mean (±SEM) von Frey Paw Withdrawal threshold following the 7th consecutive dose: 5.4 ± 0.7 g
Tranilast 300 mg/kg oral twice-daily, time 0.5 h
  Mean (±SEM) von Frey Paw Withdrawal threshold following the 7th consecutive dose: 8.6 ± 1.5 g
Tranilast 300 mg/kg oral twice-daily, time 0.75 h
  Mean (±SEM) von Frey Paw Withdrawal threshold following the 7th consecutive dose: 11 ± 1.6 g
Tranilast 300 mg/kg oral twice-daily, time 1 h
  Mean (±SEM) von Frey Paw Withdrawal threshold following the 7th consecutive dose: 12.2 ± 1.3 g
Tranilast 300 mg/kg oral twice-daily, time 1.25 h
  Mean (±SEM) von Frey Paw Withdrawal threshold following the 7th consecutive dose: 13 ± 1.3 g
Tranilast 300 mg/kg oral twice-daily, time 1.25 h, listed as tranilast
  Mean (±SEM) von Frey Paw Withdrawal threshold following the 7th consecutive dose: 13.0 (±1.3) g
Tranilast 300 mg/kg oral twice-daily, time 1.5 h
  Mean (±SEM) von Frey Paw Withdrawal threshold following the 7th consecutive dose: 12.4 ± 1.1 g
Tranilast 300 mg/kg oral twice-daily, time 2 h
  Mean (±SEM) von Frey Paw Withdrawal threshold following the 7th consecutive dose: 12.0 ± 2.2 g
Tranilast 300 mg/kg oral twice-daily, time 3 h
  Mean (±SEM) von Frey Paw Withdrawal threshold following the 7th consecutive dose: 9.0 ± 2.7 g
Tranilast 300 mg/kg oral, 7 consecutive twice-daily doses (n=5)
  Relief of tactile allodynia in the hindpaws: significant relief of tactile allodynia
Tranilast 300 mg/kg oral, 7th consecutive twice-daily dose
  AUC of anti-allodynic response versus time compared with vehicle: significantly greater (p<0.05)
Tranilast 300 mg/kg oral
  Mean duration of action: > 3 h
  Time of peak anti-allodynia post-dosing: 1 to 1.5 h
  Mean (±SEM) AUC (area under the normalized PWT versus time curve): 17.2 ± 3.3
  Mean (±SEM) Peak response (PWT): 13.0 ± 1.3
  Mean (±SEM) % MPR at peak: 147.8 ± 23.6%
Tranilast 400 mg/kg oral twice-daily, prior to dose 1
  Mean (±SEM) von Frey Paw Withdrawal threshold assessed prior to dose: 5.1 ± 0.5 g
Tranilast 400 mg/kg oral twice-daily, prior to dose 3
  Mean (±SEM) von Frey Paw Withdrawal threshold assessed prior to dose: 5.1 ± 0.5 g
Tranilast 400 mg/kg oral twice-daily, prior to dose 5
  Mean (±SEM) von Frey Paw Withdrawal threshold assessed prior to dose: 4.8 ± 0.5 g
Tranilast 400 mg/kg oral twice-daily, prior to dose 7
  Mean (±SEM) von Frey Paw Withdrawal threshold assessed prior to dose: 5.2 ± 0.5 g
Tranilast 400 mg/kg oral twice-daily, time 0 h (pre-dose)
  Mean (±SEM) von Frey Paw Withdrawal threshold following the 7th consecutive dose: 5.2 ± 0.4 g
Tranilast 400 mg/kg oral twice-daily, time 0 h (pre-dose), listed as tranilast
  Mean (±SEM) von Frey Paw Withdrawal threshold following the 7th consecutive dose: 5.2 (±0.4) g
Tranilast 400 mg/kg oral twice-daily, time 0.15 h
  Mean (±SEM) von Frey Paw Withdrawal threshold following the 7th consecutive dose: 6.0 ± 0 g
Tranilast 400 mg/kg oral twice-daily, time 0.5 h
  Mean (±SEM) von Frey Paw Withdrawal threshold following the 7th consecutive dose: 6.25 ± 0.2 g
Tranilast 400 mg/kg oral twice-daily, time 0.75 h
  Mean (±SEM) von Frey Paw Withdrawal threshold following the 7th consecutive dose: 7.5 ± 0.5 g
Tranilast 400 mg/kg oral twice-daily, time 1 h
  Mean (±SEM) von Frey Paw Withdrawal threshold following the 7th consecutive dose: 8.75 ± 0.25 g
Tranilast 400 mg/kg oral twice-daily, time 1 h, listed as tranilast
  Mean (±SEM) von Frey Paw Withdrawal threshold following the 7th consecutive dose: 8.8 (±0.3) g
Tranilast 400 mg/kg oral twice-daily, time 1.25 h
  Mean (±SEM) von Frey Paw Withdrawal threshold following the 7th consecutive dose: 7.8 ± 0.25 g
Tranilast 400 mg/kg oral twice-daily, time 1.5 h
  Mean (±SEM) von Frey Paw Withdrawal threshold following the 7th consecutive dose: 8.0 ± 0 g
Tranilast 400 mg/kg oral twice-daily, time 2 h
  Mean (±SEM) von Frey Paw Withdrawal threshold following the 7th consecutive dose: 7.8 ± 0.25 g
Tranilast 400 mg/kg oral twice-daily, time 3 h
  Mean (±SEM) von Frey Paw Withdrawal threshold following the 7th consecutive dose: 6.5 ± 0.3 g
Tranilast 400 mg/kg oral
  Mean duration of action: 3 h
  Time of peak anti-allodynia post-dosing: 0.75 to 1.25 h
  Mean (±SEM) AUC (area under the normalized PWT versus time curve): 6.3 ± 0.9
  Mean (±SEM) Peak response (PWT): 8.75 ± 0.25
  Mean (±SEM) % MPR at peak: 62.2 ± 4.2%
[1]
  Peak anti-allodynic response compared with vehicle: significantly (p<0.05) greater
  Relief of tactile allodynia in the hindpaws: significant relief of tactile allodynia; also recorded: anti-allodynia was produced
Tranilast 100, 200, 300 and 400 mg/kg oral, 7th consecutive twice-daily dose
  % MPR at the time of peak effect compared with vehicle: significantly greater than that for vehicle
Tranilast 100, 200 and 400 mg/kg oral, 7th consecutive twice-daily dose
  AUC of anti-allodynic response versus time compared with vehicle: did not reach statistical significance
Tranilast 100-400 mg/kg oral, 7 consecutive twice-daily doses
  Dosing regimen producing the maximum anti-allodynic effect: maximum anti-allodynic effect appeared to be produced by the 300 mg/kg dosing regimen
Tranilast at all doses (100-400 mg/kg oral twice-daily)
  Baseline PWT thresholds assessed prior to dose 1, 3, 5 and 7: not significantly different
